Reference: US20230321043A1, “COMPOUNDS HAVING PSEUDOMONAS ANTI-BIOFILM PROPERTIES” (Københavns Universitet, priority 2020, published 2023)

Assays:
wt P. aeruginosa biofilm [1] = assay: dispersal of 8 hour old biofilm, crystal violet staining; type: cell-based, Pseudomonas aeruginosa
Description: Using a 96 well microtiter tray format, a 20 hour old culture of wt P. aeruginosa was diluted 1000 fold into 100 μL ABtrace media aliquots supplemented with 0.2% glucose, 0.5% Cas amino acids and 1 μM FeCl3. The resulting microtiter trays were sealed with an air permeable lid and the biofilm cultures were incubated at 37° C. on a rotary shaker at 160 RPM.
After this, the culture supernatants were discarded and the remaining biomass was stained with crystal violet (Groizeleau et al. 2016). Finally, the amount of Crystal violet bound to the biofilm present in each well was plotted as a function of H6-335-P1, H6-335, H6-335-SAR compound 26 and H6-335- SAR compound 25 in the following concentrations: 100 μM, 50 μM, 25 μM, 12 μM or 0 μM (FIG. 4D). Means and standard deviations (bars) in FIG. 4D represents 5 biological replicates (n=5)

wt P. aeruginosa biofilm [2] = assay: time dependent liberation of bacteria from biofilm (CFU); type: cell-based, Pseudomonas aeruginosa; settings: 25 μM, 18 hours old biofilm, FIG. 4C
Description: In a further experiment (FIG. 4C) the time dependent liberation of wt P. aeruginosa bacteria during H6-335-P1 induced dispersal performed in 48 well trays microtiter trays was determined. After 18 hours of growth in ABtrace media aliquots supplemented with 0.5% glucose, 0.5% Cas amino acids and 1 μM FeCl3 on a rotary shaker, 25 μM H6-335-P1 or 1% DMSO control was added. At the time-points indicated, samples were withdrawn and plated for CFU determinations. Average CFU's per ml for the 1% DMSO controls at each time point are set to 100.

[3] = test system: PA01(wspF)::araC-PBAD-bifA+; assay: biofilm formation with arabinose inducible bifA expression; type: cell-based, Pseudomonas aeruginosa; settings: 6 to 100 μM with 0.05% or 0.2% arabinose, 18 hours, FIG. 6C
Description: Using a 96 well microtiter platform, overnight cultures of the strains were diluted 200 fold into 100 uL ABTrace media aliquots (Pamp and Tolker-Nielsen, 2007) supplemented with 0.2% glucose, 0.5% casa amino acids, 1 μM FeCl3, 1% DMSO and varying concentrations of arabinose and H6-335-P1.
The resulting microtiter plates were sealed with air permeable lids and biofilm cultures were grown at 37° C. on a rotary shaker (280 RPM) for 18 hours, after which the culture supernatants were discarded and biofilm present in the wells were quantified by crystal violet staining (Groizeleau et al., 2016).
Finally, biofilm prevailing following treatment with varying concentrations of arabinose and H6-335-P1 were plotted. The amounts of supplemented arabinose (0% A, 0.05% A or 0.2% A) and H6-335-P1 (100 μM, 50 μM, 25 μM, 12 μM, 6 μM or 0 μM) are indicated below the X-axis of FIG. 6C. Numbers above the bars in FIG. 6 represents the crystal violet measurements.

Pseudomonas putida = assay: biofilm formation, crystal violet, host range; type: cell-based; settings: 100 μM, 8 hours, FIG. 11
Description: (§1) To determine the host range of H6-335-P1, the inventors conducted a Blast search for analogs of the P. aeruginosa BifA phosphodiesterase protein encoded by gene PA4367 (bifA).
(§2) Briefly, the experiment presented in FIG. 11 were carried out in 96 well microtiter plates as follows. 20 hours old cultures of either P. aeruginosa, P. putida or P. flourescens were diluted 1000 fold into 100 μL aliquots of ABtrace media supplemented with 0.5% Cas amino acids, 0.2% glucose, 1 μM FeCl3, 0.2% DMSO and either 100 μM H6-335-P1 or none H6-335-P1. The resulting microtiter plate were sealed with an air permeable lid and the cultures were incubated at 37° C. on rotary shaker at 160 RPM. Following 8 hours of growth the culture supernatants were discarded and the amount of biofilm present in each well were quantified by the use of crystal violet staining. Finally, the obtained values of crystal violet (biofilm material) were plotted as a function of strain and the presence of 100 μM H6-335-P1 or absence of H6-335-P1. In FIG. 11 means and standard deviations (bars) represents 4 biological replicates (n=4).

Pseudomonas flourescens = assay: biofilm formation, crystal violet, host range; type: cell-based; settings: 100 μM, 8 hours, FIG. 11
Description: as §1, §2

[4] = test system: P. aeruginosa wspF mutant; assay: Congo Red agar plate colony phenotype; type: cell-based, Pseudomonas aeruginosa; settings: CR plates supplemented with 100 μM; dark red without compound
From the text: The inventors employed mutational analysis with the aim of identifying a putative target of H6-335-P1. The compound Congo Red (CR) binds to exopolymers whose production is positively regulated by c-di-GMP in P. aeruginosa (Friedman, L., and R. Kolter. 2003.
Genes involved in matrix formation in Pseudomonas aeruginosa PA14 biofilms. Molecular Microbiology 51:675-690).

[5] = test system: P. aeruginosa ΔbifAΔwspF mutant; assay: biofilm formation of bifA knockout, crystal violet; type: cell-based, Pseudomonas aeruginosa; settings: 100 μM, 16 hours of growth, FIG. 6B left
Description: Biofilm quantification was done using a 96 well microtiter platform where 20 hour old cultures of the deletion mutant of P. aeruginosa PA01 (ΔwspF) and its isogenic bifA deletion mutant (ΔbifA-) were diluted […] into 100 μL ABTrace media aliquots (Pamp and Tolker-Nielsen, 2007) supplemented with 0.2% glucose, 0.5% casa amino acids, 1 μM FeCl3, 0.2% DMSO and either 100 μM or 0 μM of H6-335-P1. The resulting cultures were incubated at 37° C. and 160 RPM, and following 16 hours of growth the amounts of biofilm were quantified by the use of crystal violet staining.

Klebsiella pneumoniea = assay: biofilm formation / dispersal, host range; type: cell-based; settings: data not shown

Structure (SMILES): N=C1NN=C(N)/C1=N/Nc1ccccc1F [H6-335-P1, 4-[(2-fluorophenyl) hydrazinylidene]pyrazole-3,5-diamine]
- dispersal of an 8 hour old biofilm (wt P. aeruginosa biofilm [1]; 100 μM, within a 2 hours period): 88%
- rank of biofilm dispersing potency among the four tested compounds (wt P. aeruginosa biofilm [1]; 12 to 100 μM, two hours of dispersal, FIG. 4D): most potent biofilm dispersing compound
- dispersal of live bacteria from already formed biofilms (wt P. aeruginosa biofilm [2]): induced dispersal of live bacteria into the growth medium
- inhibition of biofilm formation in arabinose stimulated (bifA induced) cultures [3]: synergistic inhibitory effect on biofilm formation
- biofilm formation of Pseudomonas putida (Pseudomonas putida): significantly less biofilm
- biofilm formation of Pseudomonas flourescens (Pseudomonas flourescens): significantly less biofilm
- colony colour on Congo Red plates [4]: white colonies
- response of biofilm formation of ΔbifAΔwspF mutant [5]: no longer responded to the presence of H6-335-P1
- biofilm formation of Klebsiella pneumoniea (Klebsiella pneumoniea): failed to reduce biofilm formation
